Test results from US12582650B2, “IRAK4 kinase inhibitor and preparation method therefor” (ZHUHAI YUFAN BIOTECHNOLOGIES CO., LTD, priority 2019, dated 2026).

Target: T1, IRAK4 (Homo sapiens, UniProt Q9NWZ3)
T1 construct: purchased Carna 09-145
T1 sequence (Q9NWZ3 1-460): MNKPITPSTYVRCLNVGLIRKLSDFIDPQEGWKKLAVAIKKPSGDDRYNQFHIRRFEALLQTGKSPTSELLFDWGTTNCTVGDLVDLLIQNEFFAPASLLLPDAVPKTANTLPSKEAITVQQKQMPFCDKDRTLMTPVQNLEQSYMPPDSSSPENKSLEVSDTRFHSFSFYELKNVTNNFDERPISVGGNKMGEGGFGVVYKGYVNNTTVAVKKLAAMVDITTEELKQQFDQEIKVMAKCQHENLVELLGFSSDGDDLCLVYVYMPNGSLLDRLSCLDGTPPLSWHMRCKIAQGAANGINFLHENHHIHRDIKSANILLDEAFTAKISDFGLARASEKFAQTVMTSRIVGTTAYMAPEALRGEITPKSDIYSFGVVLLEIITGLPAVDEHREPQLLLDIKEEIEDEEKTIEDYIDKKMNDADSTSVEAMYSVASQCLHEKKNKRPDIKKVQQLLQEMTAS
Experiment: Enzymatic experiment for IRAK4 kinase inhibitor (HTRF KinEASE-STK, phosphorylation of STK1)
Type: biochemical
Settings: 6 nM IRAK4, 0.4 uM STK1, 80 uM ATP, 37° C. for 90 min, read-out: Relative IC50
Description: Experimental materials: IRAK4 recombinant human […], purchased from Carna (Cat #09-145); ATP, purchased from Sigma (Cat #A7699-5G); Compound 26, purchased from Merck Millipore (Cat #531237); and HTRF KinEASE-STK Si kit, purchased from Cisbio (Cat #62ST1PEC).
Experimental method: Phosphorylation of STK1 can be detected using an HTRF assay kit. The experimental reaction was carried out in a 384-well plate (Greiner, Cat #784075) with a total reaction system of 20 uL. The reaction system mainly comprised 1× kinase buffer, […], […], 0.4 uM STK1 and 80 uM ATP. The target product prepared in Example 1 was serially diluted with DMSO at 10 concentration points, and transferred to an experimental assay plate at 100 nL. The reaction was started after 6 nM IRAK4 was added and stopped by adding a detection reagent (0.25×STK Antibody-Cryptate, 25 nM Streptavidin-XL665) after being in process at 37° C. for 90 min. After standing at room temperature for 60 min, an FRET signal was read on a Spark 10M or envision plate reader. (HTRF 665/615=signal value at 665 nm/signal value at 615 nm).
Data analysis: signal ratio (665/615) was converted to a percent rejection. Inhibition %=(max−sample)/(max−min)×100. “min” represents a ratio of signal values (665/615) for control well without enzyme, and “max” represents a ratio of signal values (665/615) for control well with […]. […] values for compounds were calculated by XLFit in the Excel. Y=Bottom+(Top−Bottom)/(1+(IC50/X)^HillSlope) Equation: […]

Compound	IC50 [nM]
c1[nH]c2ncc3nc(C4CCNCC4)cn3c2c1C1CCOCC1	< 100
NC1CCC(c2cn3c(cnc4[nH]cc(C5CCOCC5)c43)n2)CC1 (centres unmarked)	< 100
CC1CC(c2cn3c(cnc4[nH]cc(C5CCOCC5)c43)n2)CCN1 (centres unmarked)	100 to 1000
CC1CNCCC1c1cn2c(cnc3[nH]cc(C4CCOCC4)c32)n1 (centres unmarked)	< 100
CN1CCC(c2cn3c(cnc4[nH]cc(C5CCOCC5)c43)n2)CC1	100 to 1000
CCN1CCC(c2cn3c(cnc4[nH]cc(C5CCOCC5)c43)n2)CC1	100 to 1000
CN1CCC(c2cn3c(cnc4[nH]cc(C5CCOCC5)c43)n2)C1 (centres unmarked)	100 to 1000
c1[nH]c2ncc3nc(C4CCC5(CC4)CNC5)cn3c2c1C1CCOCC1	< 100
Cn1c(C2CCCCC2)nc2c3c(C4CCOCC4)c[nH]c3ncc21	100 to 1000
NC1CCC(c2nc3c(cnc4[nH]cc(C5CCOCC5)c43)[nH]2)CC1 (centres unmarked) [drawing 311]	< 100

Now from value to compound:

IC50 [nM]	Compound
< 100	CN(C)C1CCC(c2cn3c(cnc4[nH]cc(C5CCOCC5)c43)n2)CC1 (centres unmarked)
< 100	c1[nH]c2ncc3nc(C4CCCCC4)cn3c2c1C1CCOCC1
100 to 1000	c1[nH]c2ncc3nc(C4CCC(N5CCOCC5)CC4)cn3c2c1C1CCOCC1 (centres unmarked)
< 100	c1[nH]c2ncc3nc(C4CCCNC4)cn3c2c1C1CCOCC1 (centres unmarked)
> 1000	CC(=O)N1CCC(c2cn3c(cnc4[nH]cc(C5CCOCC5)c43)n2)CC1
> 1000	c1[nH]c2ncc3nc(C4CCN(C5COC5)CC4)cn3c2c1C1CCOCC1
> 1000	CN1CCC(c2cn3c(cnc4[nH]cc(C5CCC(C(N)=O)CC5)c43)n2)CC1 (centres unmarked)
100 to 1000	c1[nH]c2ncc3nc(C4CCOCC4)cn3c2c1C1CCOCC1
100 to 1000	c1[nH]c2ncc3[nH]c(C4CCCCC4)nc3c2c1C1CCOCC1
< 100	NC1CCC(c2nc3c(cnc4[nH]cc(C5CCOCC5)c43)[nH]2)CC1 (centres unmarked) [drawing 312]
